# Experimental data from patent publication US9889081B2, “Aldehyde dehydrogenase inhibitors as novel depigmenting agents” (The Regents of the University of California, priority 2008, dated 2018).
# Columns and labels:
# tyrosinase [1] = assay: Drug treatment, tyrosinase immunoblot in MNT-1 cells; type: cell-based, human; conditions: 5 uM, doses equivalent to those required for inhibition of Aldh activity in culture
# Description: (§1) FIG. 2A-G. Novel, pharmaceutically-tractable melanogenesis gene networks converge on tyrosinase expression. a, 4 days post transfection with the indicated siRNAs, MNT-1 whole cell lysates were prepared and analyzed by immunoblot for the indicated proteins. A non-targeting siRNA was used as a transfection control (Control). ERK1/2 is shown as a loading control. b, Those siRNAs that inhibited tryosinase accumulation were examined for consequences on Tyrosinase and MITF gene expression by quantitative rt-PCR. c, The indicated siRNAs, targeting novel pigmentation genes identified in the MNT-1 screen, were tested for consequences on tyrosinase protein accumulation in darkly pigmented primary human melanocyte cultures 6 days post transfection as in a. d, The indicated siRNAs, targeting novel pigmentation genes identified in the MNT-1 screen, were tested for consequences on tyrosinase protein accumulation in moderately pigmented primary human melanocyte cultures 6 days post transfection as in a. e, Pharmacological inhibition of Aldh activity impacts tyrosinase protein accumulation. […] Tyrosinase and ERK1/2 levels were assessed by immunoblot. […]
# (§2) 1×10^4 MNT-1 cells were plated in a 96 well microtiter plate. […] Cells were incubated for an additional 7 days, with one media change on day 4, prior to collection of absorbance and viability values. […]
# melanoma cells = conditions: cited from earlier work
# MNT-1 cells = assay: Drug treatment, pigmentation in MNT-1 cells; type: cell-based, human; conditions: doses equivalent to those required for inhibition of Aldh activity in culture
# Source text: For further analyses, we focused on those novel pigmentation genes that impacted tyrosinase expression in all three genetic backgrounds. Among these were two isoforms of aldehyde dehydrogenase, Aldh1 and Aldh9, well characterized enzymes that regulate ethanol detoxification (Edenberg 2007). A number of chemical inhibitors of these enzymes have been identified (DeMaster et al. 1998), and several of these agents are clinically utilized to induce alcohol intolerance during detoxification interventions; presenting an opportunity for pharmacological validation of the contribution of Aldh activity to melanocyte pigmentation.
# 1×10^4 MNT-1 cells were plated in a 96 well microtiter plate. 24 hours after plating, cells were incubated with either vehicle, hydroquinone Angeli's salt, or cyanamide. 48 hours after drug treatment, cell lysates were prepared and subjected to immunoblotting with a tyrosinase and ERK antibody. Similar protocols were utilized in primary melanocytes. Melanocytes were plated in 96 well microtiter plate in the presence of drug or vehicle. 24 hours after drug treatment, melanocytes were treated with UV. Cell lysates were prepared 24 hours after UV treatment and subjected to immunoblotting. […] Cells were incubated for an additional 7 days, with one media change on day 4, prior to collection of absorbance and viability values. […]
# tyrosinase [2] = assay: UV-induced tyrosinase expression in primary melanocytes, immunoblot; type: cell-based, human; conditions: cyanamide 100 uM, UV-B 24 hours post treatment
# Description: as §1, §2
# [3] = tested on: primary human melanocytes; conditions: Hall and Orlow 2005; cited from earlier work
# tyrosinase [4] = assay: Bafilomycin rescue of tyrosinase accumulation after siRNA depletion, immunoblot; type: cell-based, human; conditions: MNT-1 cells, 25 nM bafilomycin
# Description: FIG. 2A-G. Novel, pharmaceutically-tractable melanogenesis gene networks converge on tyrosinase expression. a, 4 days post transfection with the indicated siRNAs, MNT-1 whole cell lysates were prepared and analyzed by immunoblot for the indicated proteins. A non-targeting siRNA was used as a transfection control (Control). ERK1/2 is shown as a loading control. b, Those siRNAs that inhibited tryosinase accumulation were examined for consequences on Tyrosinase and MITF gene expression by quantitative rt-PCR. c, The indicated siRNAs, targeting novel pigmentation genes identified in the MNT-1 screen, were tested for consequences on tyrosinase protein accumulation in darkly pigmented primary human melanocyte cultures 6 days post transfection as in a. d, The indicated siRNAs, targeting novel pigmentation genes identified in the MNT-1 screen, were tested for consequences on tyrosinase protein accumulation in moderately pigmented primary human melanocyte cultures 6 days post transfection as in a. e, Pharmacological inhibition of Aldh activity impacts tyrosinase protein accumulation. MNT-1 cells (left panel) and primary melanomcyte cultures (right panels) were exposed to 5 uM Aldh inhibitors (cyanamide or Angeli's salt) or the tyrosinase inhibitor hydroxyquinone(Kim and Uyama 2005) for 72 hours as indicated. 24 hours post treatment, cultures were exposed to UV-B at the doses indicated. Tyrosinase and ERK1/2 levels were assessed by immunoblot. […] Subsequently, cells were lysed in Cell Titer Glo and the luminescence and absorbance values were used to calculate inhibition of pigmentation as in FIG. 1a. g, MNT-1 cells transfected with the indicated siRNAs as in a were incubated in the presence and absence of bafilomycin A2 for 24 hours prior to lyses and analyses of tyrosinase protein accumulation. […]
# as §2
# [5] = tested on: primary human melanocytes; assay: Pigment production in darkly pigmented primary human melanocytes, 7 days with drug; type: cell-based; conditions: seven days
# Description: as §1, §2
# [6] = 24 hour inhibition of lysosome acidification
SMILES,tyrosinase protein accumulation (tyrosinase [1]),toxicity (melanoma cells),pigmentation (MNT-1 cells),UV-induced tyrosinase expression (tyrosinase [2]),also measured
[Na+].[Na+].[O-][N+]([O-])=NO [Angeli's salt],inhibited,non-toxic,inhibited pigmentation,impaired UV-induced tyrosinase expression,
CCN(CC)C(=S)SSC(=S)N(CC)CC [Disulfiram],,toxic to melanoma cells,,,
"NC(=S)Nc1ccccc1 [PTU, phenylthiourea]",,,,,in vitro pigment inhibition [3]: most potent currently known in vitro pigment inhibitor
"CO/C1=C\C(C)=C\[C@@H](C)[C@@H](O)[C@@H](C)C/C(C)=C/C=C/[C@H](OC)[C@@H]([C@@H](C)[C@@H](O)[C@H](C)[C@@]2(O)C[C@@H](O)[C@H](C)[C@@H](C(C)C)O2)OC1=O [bafilomycin, bafilomycin A]",,,,,tyrosinase accumulation upon depletion of Msra (tyrosinase [4]): did not restore tyrosinase accumulation; tyrosinase accumulation upon depletion of Rab4a (tyrosinase [4]; [6]): rescued tyrosinase accumulation; tyrosinase accumulation upon depletion of Zdhhc9 (tyrosinase [4]; [6]): rescued tyrosinase accumulation
N#CN [cyanamide],inhibited,non-toxic,inhibited pigmentation,impaired UV-induced tyrosinase expression,melanogenesis [5]: impair melanogenesis
